From US9492464B2, “Composition for preventing or treating side effect of steroid in subject comprising acetylsalicylic acid and use thereof” (Samsung Electronics Co., Ltd., priority 2014, dated 2016)

Key:
Type in all cases: cell-based, mouse
glucocorticoid receptor = test: Immunoblotting of phosphorylated glucocorticoid receptor (pGR) in differentiated C2C12 cells; settings: 40, 400 or 4000 μM Aspirin pre-treatment 24 hours, then 2 μM dexamethasone 24 hours; as amount of Aspirin increases, FIG. 1
Procedure: First, C2C12 cell lines (mouse gastrocnemius muscle, ATCC® CRL-1772™) were seeded in a 60 mm dish in 10% FBS/DMEM and incubated at 37° C. in a 5% CO2 incubator. When the cells formed 70% confluent, the culture medium was replaced with 2% FBS/DMEM and the cells were cultured for 4 days to completely induce differentiation into muscle cells. C2C12 cell lines are mouse myoblast cell lines obtained by continuous culture of myoblast cells cultured from gastrocnemius muscle of C3H mice.
When C2C12 cells were completely differentiated into muscle cells, the culture medium was removed therefrom, and 4 ml of a fresh culture medium including 40 μM, 400 μM, or 4000 μM of Aspirin (Sigma Aldrich) was added thereto, and then the cells were cultured for 24 hours. 2 μM of dexamethasone (Sigma Aldrich) was added to the cultured cells and the cells were further cultured for 24 hours. A negative control group was not treated with acetylsalicylic acid and dexamethasone.
The culture medium was removed therefrom, and the cells were collected. Then, 500 μl of RIPA (20 mM Tris-HCl (pH 7.5), 150 mM NaCl, 1 mM Na2EDTA, 1 mM EGTA, 1% NP-40, 1% (w/v) sodium deoxycholate, 2.5 mM sodium pyrophosphate, 1 mM beta-glycerophosphate, 1 mM Na3VO4, and 1 μg/ml leupeptin) lysis buffer was added thereto. The cells were lysed to obtain lysates. […]

Atrogin-1 = test: Real time PCR of Atrogin-1 mRNA in differentiated C2C12 cells; settings: 400 μM Aspirin 24 hours, then 2 μM dexamethasone 24 hours, normalized to GAPDH, FIG. 3A
Procedure: (§1) As described above with reference to Example 1(2), C2C12 cells were completely differentiated into muscle cells, and 4 ml of a fresh culture medium including 400 μM of Aspirin (Sigma Aldrich) was added thereto, and then the cells were cultured for 24 hours. 2 μM of dexamethasone (Sigma Aldrich) was added to the cultured cells, and the cells were cultured for 24 hours. The culture medium was removed therefrom, and the cells were collected. A negative control group was not treated with acetylsalicylic acid and dexamethasone.
(§2) A Trizol reagent (Invitrogen) was added to the collected cells, and total RNA was separated therefrom according to manufacturer's protocols. Complementary DNA (cDNA) was synthesized from the separated total RNA by using a reverse transcriptase. Amounts of mRNA of Atrogin-1 and MuRF-1 were quantified using a real time PCR device (MyiQPCR instrument, BioRad) that is a device measuring SYBR Green. The results were normalized with respect to an amount of GAPDH mRNA. […]
(§3) Values obtained via amplification were normalized by GAPDH gene, and relative expression levels of mRNA of Atrogin-1 and MURF-1 were quantified. The quantified relative expression levels (arbitrary unit (AU)) of mRNA of Atrogin-1 and MURF-1 are illustrated in FIGS. 3A and 3B, respectively, […]

MuRF-1 = test: Real time PCR of MuRF-1 mRNA in differentiated C2C12 cells; settings: 400 μM Aspirin 24 hours, then 2 μM dexamethasone 24 hours, normalized to GAPDH, FIG. 3B
Procedure: as §1, §2, §3

`CC(=O)Oc1ccccc1C(=O)O` [Aspirin, 2-(acetyloxy)benzoic acid] was tested. Which “amount of glucocorticoid receptor GR phosphorylated by dexamethasone” value (glucocorticoid receptor) did it give?
Its value is “decreases”.

What about the “expression of mRNA of Atrogin-1” value (Atrogin-1) of the same molecule?
Its value is “did not increase”.

And the “expression of mRNA of MuRF1” value (MuRF-1)?
Its value is “did not increase”.
